In ChEMBL document CHEMBL4828705, “Inhibition studies on carbonic anhydrase isoforms I, II, IV and IX with N-arylsubstituted secondary sulfonamides featuring a bicyclic tetrahydroindazole scaffold” (Eur J Med Chem, 2021):
pKi: −log10 of the molar value.

Tests used:
Carbonic anhydrase 9 = Carbonic anhydrase 9 (Homo sapiens, UniProt Q16790); assay: Inhibition of recombinant human CA9 preincubated for 15 mins by phenol red dye-based stopped-flow CO2 hydration assay
Carbonic anhydrase 1 = Carbonic anhydrase 1 (Homo sapiens, UniProt P00915); assay: Inhibition of recombinant human CA1 preincubated for 15 mins by phenol red dye-based stopped-flow CO2 hydration assay
Chain of Carbonic anhydrase 1 (P00915 whole entry): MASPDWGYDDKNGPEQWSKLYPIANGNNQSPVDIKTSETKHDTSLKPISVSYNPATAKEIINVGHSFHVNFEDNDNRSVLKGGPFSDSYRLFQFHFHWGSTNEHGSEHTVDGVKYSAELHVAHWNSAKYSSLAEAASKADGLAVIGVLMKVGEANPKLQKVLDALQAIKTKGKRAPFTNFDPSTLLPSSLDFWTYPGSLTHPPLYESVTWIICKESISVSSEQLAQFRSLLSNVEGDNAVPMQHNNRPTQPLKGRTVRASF

Carbonic anhydrase 2 = Carbonic anhydrase 2 (Homo sapiens, UniProt P00918); assay: Inhibition of recombinant human CA2 preincubated for 15 mins by phenol red dye-based stopped-flow CO2 hydration assay
Carbonic anhydrase 4 = Carbonic anhydrase 4 (Homo sapiens, UniProt P22748); assay: Inhibition of recombinant human CA4 preincubated for 15 mins by phenol red dye-based stopped-flow CO2 hydration assay
Chain of Carbonic anhydrase 4 (P22748 whole entry): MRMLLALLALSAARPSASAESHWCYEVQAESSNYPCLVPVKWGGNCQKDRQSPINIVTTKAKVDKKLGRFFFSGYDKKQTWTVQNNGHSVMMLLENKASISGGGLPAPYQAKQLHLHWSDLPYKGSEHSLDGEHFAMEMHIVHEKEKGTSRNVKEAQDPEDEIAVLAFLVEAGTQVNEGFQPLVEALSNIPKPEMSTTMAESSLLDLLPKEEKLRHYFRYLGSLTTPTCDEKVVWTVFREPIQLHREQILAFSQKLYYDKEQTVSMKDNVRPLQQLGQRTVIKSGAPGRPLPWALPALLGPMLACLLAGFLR

Structure (SMILES) | pKi (Carbonic anhydrase 9) | pKi (Carbonic anhydrase 1) | pKi (Carbonic anhydrase 2) | pKi (Carbonic anhydrase 4)
O=C1CCCc2c1cnn2-c1ccc(S(=O)(=O)Nc2ccc(Cl)cc2)cc1 | < 4.00 |  |  | 
O=C1CC(c2ccccc2)Cc2c1cnn2-c1ccc(S(=O)(=O)Nc2cccc(Cl)c2)cc1 (centres undefined) | 4.38 |  |  | 
O=C1CC(c2ccccc2)Cc2c1cnn2-c1ccc(S(=O)(=O)Nc2cccc([N+](=O)[O-])c2)cc1 (centres undefined) | 4.07 |  |  | < 4.00
COc1cccc(NS(=O)(=O)c2ccc(-n3ncc4c3CC(C)(C)CC4=O)cc2)c1 | < 4.00 |  |  | 
CC1(C)CC(=O)c2cnn(-c3ccc(S(=O)(=O)Nc4ccc([N+](=O)[O-])cc4)cc3)c2C1 | < 4.00 | < 4.00 |  | 
CC1(C)CC(=O)c2cnn(-c3ccc(S(=O)(=O)Nc4cccc(Cl)c4)cc3)c2C1 | < 4.00 | < 4.00 | < 4.00 | 
COc1cccc(NS(=O)(=O)c2ccc(-n3ncc4c3CC(c3ccccc3)CC4=O)cc2)c1 (centres undefined) | 4.24 |  |  | 
Cc1ccc(NS(=O)(=O)c2ccc(-n3ncc4c3CCCC4=O)cc2)cc1 | 4.41 |  |  | 
COc1ccc(NS(=O)(=O)c2ccc(-n3ncc4c3CC(C)(C)CC4=O)cc2)cc1 | < 4.00 |  |  | 
O=C1CCCc2c1cnn2-c1ccc(S(=O)(=O)Nc2cccc(Cl)c2)cc1 | 4.43 |  |  | 
O=C1CC(c2ccccc2)Cc2c1cnn2-c1ccc(S(=O)(=O)Nc2ccccc2)cc1 (centres undefined) | 4.02 |  |  | 
CC1(C)CC(=O)c2cnn(-c3ccc(S(=O)(=O)Nc4cccc([N+](=O)[O-])c4)cc3)c2C1 | < 4.00 | < 4.00 |  | 

The next lines start with the values.

pKi (Carbonic anhydrase 9) | pKi (Carbonic anhydrase 1) | pKi (Carbonic anhydrase 2) | pKi (Carbonic anhydrase 4) | Structure (SMILES)
< 4.00 | < 4.00 | < 4.00 |  | Cc1cccc(NS(=O)(=O)c2ccc(-n3ncc4c3CC(C)(C)CC4=O)cc2)c1
4.48 |  |  |  | Cc1cccc(NS(=O)(=O)c2ccc(-n3ncc4c3CCCC4=O)cc2)c1
< 4.00 |  | < 4.00 | < 4.00 | COc1cccc(NS(=O)(=O)c2ccc(-n3ncc4c3CCCC4=O)cc2)c1
< 4.00 | < 4.00 |  |  | Cc1ccc(NS(=O)(=O)c2ccc(-n3ncc4c3CC(C)(C)CC4=O)cc2)cc1
< 4.00 |  |  |  | CC1(C)CC(=O)c2cnn(-c3ccc(S(=O)(=O)Nc4ccc(Cl)cc4)cc3)c2C1
4.21 |  |  | < 4.00 | Cc1cccc(NS(=O)(=O)c2ccc(-n3ncc4c3CC(c3ccccc3)CC4=O)cc2)c1 (centres undefined)
4.08 |  |  |  | O=C1CCCc2c1cnn2-c1ccc(S(=O)(=O)Nc2ccc([N+](=O)[O-])cc2)cc1
4.33 |  |  |  | O=C1CC(c2ccccc2)Cc2c1cnn2-c1ccc(S(=O)(=O)Nc2ccc(Cl)cc2)cc1 (centres undefined)
4.25 |  |  |  | COc1ccc(NS(=O)(=O)c2ccc(-n3ncc4c3CCCC4=O)cc2)cc1
< 4.00 |  | < 4.00 |  | O=C1CCCc2c1cnn2-c1ccc(S(=O)(=O)Nc2cccc([N+](=O)[O-])c2)cc1
4.33 |  |  |  | Cc1ccc(NS(=O)(=O)c2ccc(-n3ncc4c3CC(c3ccccc3)CC4=O)cc2)cc1 (centres undefined)
< 4.00 |  |  |  | CC1(C)CC(=O)c2cnn(-c3ccc(S(=O)(=O)Nc4ccccc4)cc3)c2C1
4.40 |  |  |  | COc1ccc(NS(=O)(=O)c2ccc(-n3ncc4c3CC(c3ccccc3)CC4=O)cc2)cc1 (centres undefined)
4.01 |  |  |  | O=C1CCCc2c1cnn2-c1ccc(S(=O)(=O)Nc2ccccc2)cc1
5.39 |  |  |  | O=C1CC(c2ccccc2)Cc2c1cnn2-c1ccc(S(=O)(=O)Nc2ccc([N+](=O)[O-])cc2)cc1 (centres undefined)
